One may read the EC50 as the concentration that produces a half-maximal response.

The values that follow come from patent US8653270B2, “Compounds as receptor modulators with therapeutic utility” (Allergan, Inc., priority 2010, dated 2014).

For assay [1], the target named is T1, human S1P1 receptor (Homo sapiens, UniProt P21453).
T1 construct: expressed in transfected cells; membranes used
Description: GTP γ35S binding assay for S1P1 activity. Type of assay: biochemical. The note with it: membranes of cells stably expressing S1P1 receptor, 30 min at 25° C. Here is the method:
Compounds were tested for S1P1 activity using the GTP γ^35S binding assay. These compounds may be assessed for their ability to activate or block activation of the human S1P1 receptor in cells stably expressing the S1P1 receptor.
GTP γ^35S binding was measured in the medium containing (mM) HEPES 25, pH 7.4, MgCl2 10, NaCl 100, dithitothreitol 0.5, digitonin 0.003%, 0.2 nM GTP γ^35S, and 5 μg membrane protein in a volume of 150 μl. Test compounds were included in the concentration range from 0.08 to 5,000 nM unless indicated otherwise. Membranes were incubated with 100 μM 5′-adenylylimmidodiphosphate for 30 min, and subsequently with 10 μM GDP for 10 min on ice. Drug solutions and membrane were mixed, and then reactions were initiated by adding GTP γ^35S and continued for 30 min at 25° C. Reaction mixtures were filtered over Whatman GF/B filters under vacuum, and washed three times with 3 mL of ice-cold buffer (HEPES 25, pH 7.4, MgCl2 10 and NaCl 100). Filters were dried and mixed with scintillant, and counted for ^35S activity using a β-counter. Agonist-induced GTP γ^35S binding was obtained by subtracting that in the absence of agonist. Binding data were analyzed using a non-linear regression method. In case of antagonist assay, the reaction mixture contained 10 nM S1P in the presence of test antagonist at concentrations ranging from 0.08 to 5000 nM. Activity potency: S1P1 receptor from GTP γ^35S: nM, (EC50),
For orientation: GTPγS resists hydrolysis and so accumulates on activated G proteins.

For assay [2], the system named is blood lymphocytes. The experiment in a line: Lymphopenia assay in mice. The assay is classed as in vivo. Conditions: female C57BL6 mice, 10 mg/Kg subcutaneously, after 24 hours. Here is the method:
Test drugs are prepared in a solution containing 3% (w/v) 2-hydroxy propyl β-cyclodextrin (HPBCD) and 1% DMSO to a final concentration of 1 mg/ml, and subcutaneously injected to female C57BL6 mice (CHARLES RIVERS) weighing 20-25 g at the dose of 10 mg/Kg. Blood samples are obtained by puncturing the submandibular skin with a Goldenrod animal lancet at 24, 48, 72, and 96 hrs post drug application. Blood is collected into microvettes (SARSTEDT) containing EDTA tripotassium salt. Lymphocytes in blood samples are counted using a HEMAVET Multispecies Hematology System, HEMAVET HV950FS (Drew Scientific Inc.).
(Hale, J. et al Bioorg. & Med. Chem. Lett. 14 (2004) 3351).
A lymphopenia assay in mice; as previously described, was employed to measure the in vivo blood lymphocyte depletion after dosing with (2S)-2-amino-3-oxo-3-({4-[(5-phenylpentyl)oxy]-3-(2-thienyl)phenyl}amino)propyl dihydrogen phosphate. This S1P1 agonist is useful for S1P-related diseases and exemplified by the lymphopenia in vivo response. […] Lymphocytes in blood samples were counted using a HEMAVET Multispecies Hematology System, HEMAVET HV950FS (Drew Scientific Inc.). […]

T1 sequence (P21453 whole entry): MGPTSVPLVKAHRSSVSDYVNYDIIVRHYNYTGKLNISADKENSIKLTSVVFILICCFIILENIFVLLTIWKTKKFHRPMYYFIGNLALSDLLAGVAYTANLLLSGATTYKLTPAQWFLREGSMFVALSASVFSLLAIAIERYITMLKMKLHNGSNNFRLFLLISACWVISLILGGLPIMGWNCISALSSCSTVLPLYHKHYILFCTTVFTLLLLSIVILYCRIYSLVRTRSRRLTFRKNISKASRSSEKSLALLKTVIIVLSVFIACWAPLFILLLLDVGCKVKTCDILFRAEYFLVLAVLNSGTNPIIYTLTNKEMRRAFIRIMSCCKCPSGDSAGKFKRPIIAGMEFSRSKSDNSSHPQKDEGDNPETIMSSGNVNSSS

With `C[C@@](N)(COP(=O)(O)O)C(=O)Nc1ccc(OCCCCCc2ccccc2)c(-c2cccs2)c1` [Compound 1, (2R)-2-amino-2-methyl-3-oxo-3-({4-[(5-phenylpentyl)oxy]-3-(2-thienyl)phenyl}amino)propyl dihydrogen phosphate], in assay [1], the EC50 came to 0.096 µM. “(2S)-2-amino-3-({3-(2-furyl)-4-[(5-phenylpentyl)oxy]phenyl}amino)-3-oxopropyl dihydrogen phosphate [Compound 3]”: in assay [1], the EC50 is 0.008 µM. Regarding `C[C@](N)(COP(=O)(O)O)C(=O)Nc1ccc(OCCCCCc2ccccc2)c(-c2cccs2)c1` [Compound 2, (2S)-2-amino-2-methyl-3-oxo-3-({4-[(5-phenylpentyl)oxy]-3-(2-thienyl)phenyl}amino)propyl dihydrogen phosphate], in assay [1], the EC50 turned out to be 0.034 µM.

For the compound `N[C@@H](COP(=O)(O)O)C(=O)Nc1ccc(OCCCCCc2ccccc2)c(-c2cccs2)c1` [Compound 4, (2S)-2-amino-3-oxo-3-({4-[(5-phenylpentyl)oxy]-3-(2-thienyl)phenyl}amino)propyl dihydrogen phosphate], in assay [2], the “lymphocyte count (number of lymphocytes 10^3/μL blood)” value is given as < 1 10^3/μL blood. Moreover, the midpoint of the response in assay [1], the EC50, lay at 0.003 µM.
